Data taken from patent publication US8710064B2, “2-aryl-4-quinazolinones and their pharmaceutical compositions” (China Medical University, priority 2011, dated 2014).

Columns and labels:
U87 glioma cells = test: immunofluorescent staining, confocal microscopy; type: cell-based, human; details: 60 nM, 24 hours
Description: 2×10^4 cells were seeded on the PDL-coating 12 mm-glass coverslips in 24-well plate and allowed to attach for 24 hours at 37° C. Culture medium containing MJ-66 (IC50) or DMSO (0.006%) was added, and cells were incubated at 37° C. At indicated time points (0, 12 and 24 hr), cells were fixed in 4% paraformaldehyde (PFA) in PBS for 30 minutes. After permeabilized by 0.2% Triton X-100 in 0.1 M PBS for 10 minutes and 10% methanol containing 0.2% Triton X-100 in 0.1 M PBS for 5 minutes, cells were blocked in 3% bovine serum albumin (BSA, Sigma) for 1 hour. The cells were immunostained for mitotic spindle with mouse monoclonal alpha-tubulin (Sigma-Aldrich), and mitotic center with rabbit polyclonal gamma-tubulin (Genetex), and then stained with appropriated secondary antibodies conjugated with Texas Red or FITC for 1 hr. […] Fluorescence images were detected by confocal laser scanning microscope (FV1000, Olympus).
To observe the morphology of MJ-66-treated glioma cells, C6 or U87 glioma cells were treated with medium or 60 nM MJ-66 for 24 hours and stained with Hoechst 33342 and antibodies against alpha-tubulin conjugated with FITC or antibodies against gamma-tubulin conjugated with FITC in combination with antibodies against alpha-tubulin conjugated with Texas Red were detected by confocal laser scanning microscope. […]

HT29-5FUR cells = test: MTT cell viability assay, HT29-5FUR cells; type: cell-based, human; details: 25, 50, 100 and 200 nM for 24 and 48 hours
Description: HT29-5FUR cell line (human colon adenocarcinoma) provided by Dr. Jai-Sing Yang (China Medical University, Taiwan) was cultured in RPMI-1640 medium (Invitrogen, Carlsbad, Calif., USA) supplemented with 10% fetal bovine serum, 2 mM L-glutamine, 100 U/ml penicillin, and 100 μg/ml streptomycin.
Cells (1×10^4 cells/well) in 96-well plates were exposed to test MJ-66, and 0.1% DMSO in media served as a vehicle control. After 24 and 48 hr-incubations, […] MTT (0.5 mg/mL) solution was added to each well, the plate was incubated at 37° C. for 4 hours. Then, […] 0.04 N HCl in isopropanol was added and the absorbance at 570 nm was measured for each well. The cell survival rate was expressed as % of control. All results were performed from three independent experiments.
The growth inhibition effects of MJ-66 on HT29-5FUR cells were investigated. For cell viability assay, HT29-5FUR cells were cultured and treated with 0, 25, 50, 100 and 200 nM MJ-66 and the percentages of viable cells were detected by MTT assay described in “General materials and methods”.

rat primary glia cells = test: MTS cell viability assay, rat primary glia cells; type: cell-based; details: 0.00625-1 μM
Description: The human glioma cell lines U87, U251, T98G, U373, and rat glioma cell line RT2 provided by Dr. Michael Hsiao (Genomics Research Center, Academia Sinica, Taiwan) were cultured in Dulbecco's Modified Eagle medium (DMEM) (Caisson) supplemented with 10% fetal bovine serum (FBS) (Sigma-Aldrich), 2 mM L-glutamine (Caisson), 100 U/ml penicillin, and 100 μg/ml streptomycin (Caisson). The rat glioma C6 cell line provided by Dr. Shun-Fen Tzeng (National Cheng Kung University, Taiwan) was cultured in DMEM/F12 (Caisson) supplemented with 10% fetal bovine serum, 2 mM L-glutamine, 100 U/ml penicillin, and 100 μg/ml streptomycin. […] Cell proliferation was determined by MTS (tetrazolium compound, 3-(4,5-dimethylthiazol-2-yl)-5-(3-carboxymethoxyphenyl)-2-(4-sulfophenyl)-2H-tetrazolium) assay (Promega). […] The absorbance of soluble formazan was measured at 490 nm with microplate reader (Molecular device). The cell viability was determined by the percentage of the absorption relative to untreated control. […] To investigate the influence of MJ-66 on normal glia such as human glia cell line SVGP12 and rat primary glia cells, cells were treated with different concentrations of MJ-66 in vitro (0.00625, 0.0125, 0.025, 0.05, 0.1 and 1 μM) for different time durations (0, 6, 12 and 24 hours) and the cell viability was assessed by MTS assay. […]

## O=c1[nH]c(-c2cccc3ccccc23)nc2ccc(N3CCCC3)cc12 [Compound 23, 6-(Pyrrolidin-1-yl)-2-(naphthalen-1-yl)quinazolin-4-one]
U87 glioma cells
  nuclear morphology of U87 glioma cells: abnormal nuclear phenotype
HT29-5FUR cells
  cell number of HT29-5FUR relative to control: dose-dependent decreases
Rat primary glia cells
  cell viability of rat glia cells: inhibited
